Test results published in US20110015067A1, “Herbicidal Compositions Comprising Pyroxasulfone” (BASF SE, priority 2008, published 2011).

Assays:
Type in all cases: in vivo
[1] = tested on: ABUTH (Abutilon theophrasti); experiment: pre-emergence greenhouse test; details: pre-emergence, 7.5 g ai/ha
Text: (§1) For the pre-emergence treatment, directly after sowing the active compounds, which had been suspended or emulsified in water, were applied by means of finely distributed nozzles. The containers were irrigated gently to promote germination and growth and subsequently covered with transparent plastic hoods until plant had rooted. This cover caused uniform germination of the tests plants, unless this was adversely affected by active compounds.
(§2) The respective herbicides A and/or safener were formulated as 10% by weight strength suspension concentrate and introduced to the spray liquor with the amount of solvent system used for applying the active compound. Herbicide B and/or safener were used as commercially available formulations and introduced to the spray liquor with the amount of solvent system used for applying the active compound. In the examples, the solvent used was water.
(§3) The test period extended over 20 days. During this time, the plants were tended, and their response to the treatments with active compound was evaluated.
(§4) In the following experiments, the herbicidal activity for the individual herbicide compounds (solo application) and of the mixture was assessed 8 days after treatment (8 DAT) and/or 20 days after treatment (20 DAT).
(§5) The evaluation for the damage caused by the chemical compositions was carried out using a scale from 0 to 100%, compared to the untreated control plants. Here, 0 means no damage and 100 means complete destruction of the plants.

[2] = tested on: ALOMY (Alopecurus myosuroides); experiment: pre-emergence greenhouse test; details: for observed activity in % destruction: pre-emergence, 15 g ai/ha
Text: as §1, §2, §3, §4, §5

[3] = tested on: AMARE (Amaranthus retroflexus); experiment: pre-emergence greenhouse test; details: pre-emergence
Text: as §1, §2, §3, §4, §5

[4] = tested on: BRAPL (Brachiaria plantaginea); experiment: pre-emergence greenhouse test; details: for observed activity in % destruction: pre-emergence, 15 g ai/ha
Text: as §1, §2, §3, §4, §5

[5] = tested on: COMBE (Commelina benghalensis); experiment: pre-emergence greenhouse test; details: for observed activity in % destruction: pre-emergence
Text: as §1, §2, §3, §4, §5

[6] = tested on: ECHCG (Echinochloa crus-galli); experiment: pre-emergence greenhouse test; details: for observed activity in % destruction: pre-emergence
Text: as §1, §2, §3, §4, §5

ERBVI = experiment: pre-emergence greenhouse test; details: ERBVI pre-emergence 15 g ai/ha
Text: as §1, §2, §3, §4, §5

[7] = tested on: LOLMU (Lolium multiflorum); experiment: pre-emergence greenhouse test; details: for observed activity in % destruction: pre-emergence
Text: as §1, §2, §3, §4, §5

[8] = tested on: PANDI (Panicum dichotomiflorum); experiment: pre-emergence greenhouse test; details: pre-emergence
Text: as §1, §2, §3, §4, §5

PHBPU (Ipomoea purpurea) = experiment: pre-emergence greenhouse test; details: for observed activity in % destruction: pre-emergence, 3.75 g ai/ha
Text: as §1, §2, §3, §4, §5

SETVI (Setaria viridis) = experiment: pre-emergence greenhouse test
Text: as §1, §2, §3, §4, §5

SOLNI (Solanum nigrum) = experiment: pre-emergence greenhouse test; details: for observed activity in % destruction: pre-emergence
Text: as §1, §2, §3, §4, §5

[9] = tested on: ALOMY (Alopecurus myosuroides); experiment: post-emergence greenhouse test; details: 3.75 g ai/ha
Text: (§6) For the post-emergence treatment, the test plants were first grown to a height of 3 to 20 cm, depending on the plant habit, and only then treated. Here, the herbicidal compositions were suspended or emulsified in water as distribution medium and sprayed using finely distributing nozzles.
as §2, §3, §4, §5

[10] = tested on: CHEAL (Chenopodium album); experiment: post-emergence greenhouse test; details: 15 g ai/ha
Text: as §6, §2, §3, §4, §5

[11] = tested on: MERAN (Mercurialis annua); experiment: post-emergence greenhouse test; details: 7.5 g ai/ha
Text: as §6, §2, §3, §4, §5

Cc1cnc(C2=NC(=O)C(C)(C(C)C)N2)c(C(=O)O)c1 (stereo not drawn) [imazapic]
observed activity in % destruction ([1]; 8 DAT): 20% | observed activity in % destruction ([1]; 20 DAT): 75% | observed % destruction 20 DAT ([2]; ALOMY pre-emergence 15 g ai/ha): 80% | observed activity in % destruction ([2]; 8 DAT): 40% | observed activity in % destruction ([2]; 20 DAT): 80% | observed activity in % destruction ([3]; 3.75 g ai/ha, 8 DAT): 30% | observed activity in % destruction ([3]; 3.75 g ai/ha, 20 DAT): 55% | observed activity in % destruction ([3]; 7.5 g ai/ha, 8 DAT): 50% | observed activity in % destruction ([3]; 7.5 g ai/ha, 20 DAT): 75% | observed activity in % destruction ([3]; 15 g ai/ha, 8 DAT): 50% | observed activity in % destruction ([3]; 15 g ai/ha, 20 DAT): 90% | observed % destruction 20 DAT ([4]; BRAPL pre-emergence 15 g ai/ha): 85% | observed activity in % destruction ([4]; 8 DAT): 30% | observed activity in % destruction ([4]; 20 DAT): 85% | observed % destruction 20 DAT ([5]; COMBE pre-emergence 3.75 g ai/ha): 30% | observed % destruction 20 DAT ([5]; COMBE pre-emergence 7.5 g ai/ha): 40% | observed activity in % destruction ([5]; 3.75 g ai/ha, 8 DAT): 0% | observed activity in % destruction ([5]; 3.75 g ai/ha, 20 DAT): 30% | observed activity in % destruction ([5]; 7.5 g ai/ha, 8 DAT): 20% | observed activity in % destruction ([5]; 7.5 g ai/ha, 20 DAT): 40% | observed % destruction 20 DAT ([6]; ECHCG pre-emergence 7.5 g ai/ha): 60% | observed % destruction 20 DAT ([6]; ECHCG pre-emergence 15 g ai/ha): 90% | observed activity in % destruction ([6]; 7.5 g ai/ha, 8 DAT): 30% | observed activity in % destruction ([6]; 7.5 g ai/ha, 20 DAT): 60% | observed activity in % destruction ([6]; 15 g ai/ha, 8 DAT): 65% | observed activity in % destruction ([6]; 15 g ai/ha, 20 DAT): 90% | observed % destruction 20 DAT (ERBVI): 65% | observed % destruction 20 DAT ([7]; LOLMU pre-emergence 3.75 g ai/ha): 40% | observed % destruction 20 DAT ([7]; LOLMU pre-emergence 7.5 g ai/ha): 45% | observed % destruction 20 DAT ([7]; LOLMU pre-emergence 15 g ai/ha): 65% | observed activity in % destruction ([7]; 3.75 g ai/ha, 8 DAT): 0% | observed activity in % destruction ([7]; 3.75 g ai/ha, 20 DAT): 40% | observed activity in % destruction ([7]; 7.5 g ai/ha, 8 DAT): 0% | observed activity in % destruction ([7]; 7.5 g ai/ha, 20 DAT): 45% | observed activity in % destruction ([7]; 15 g ai/ha, 8 DAT): 30% | observed activity in % destruction ([7]; 15 g ai/ha, 20 DAT): 65% | observed activity in % destruction ([8]; 3.75 g ai/ha, 8 DAT): 0% | observed activity in % destruction ([8]; 3.75 g ai/ha, 20 DAT): 80% | observed activity in % destruction ([8]; 7.5 g ai/ha, 8 DAT): 30% | observed activity in % destruction ([8]; 7.5 g ai/ha, 20 DAT): 90% | observed activity in % destruction ([8]; 15 g ai/ha, 8 DAT): 50% | observed activity in % destruction ([8]; 15 g ai/ha, 20 DAT): 95% | observed % destruction 20 DAT (PHBPU (Ipomoea purpurea); PHBPU pre-emergence 3.75 g ai/ha): 25% | observed activity in % destruction (PHBPU (Ipomoea purpurea); 8 DAT): 30% | observed activity in % destruction (PHBPU (Ipomoea purpurea); 20 DAT): 25% | observed % destruction 20 DAT (SETVI (Setaria viridis); SETVI pre-emergence 3.75 g ai/ha): 75% | observed % destruction 20 DAT (SETVI (Setaria viridis); SETVI pre-emergence 7.5 g ai/ha): 90% | observed % destruction 20 DAT (SETVI (Setaria viridis); SETVI pre-emergence 15 g ai/ha): 95% | observed % destruction 20 DAT (SOLNI (Solanum nigrum); SOLNI pre-emergence 3.75 g ai/ha): 70% | observed % destruction 20 DAT (SOLNI (Solanum nigrum); SOLNI pre-emergence 7.5 g ai/ha): 85% | observed % destruction 20 DAT (SOLNI (Solanum nigrum); SOLNI pre-emergence 15 g ai/ha): 90% | observed activity in % destruction (SOLNI (Solanum nigrum); 3.75 g ai/ha, 8 DAT): 20% | observed activity in % destruction (SOLNI (Solanum nigrum); 3.75 g ai/ha, 20 DAT): 70% | observed activity in % destruction (SOLNI (Solanum nigrum); 7.5 g ai/ha, 8 DAT): 40% | observed activity in % destruction (SOLNI (Solanum nigrum); 7.5 g ai/ha, 20 DAT): 85% | observed activity in % destruction (SOLNI (Solanum nigrum); 15 g ai/ha, 8 DAT): 50% | observed activity in % destruction (SOLNI (Solanum nigrum); 15 g ai/ha, 20 DAT): 90% | observed activity in % destruction ([9]; 8 DAT): 35% | observed activity in % destruction ([9]; 20 DAT): 30% | observed activity in % destruction ([10]; 8 DAT): 20% | observed activity in % destruction ([10]; 20 DAT): 30% | observed activity in % destruction ([11]; 8 DAT): 20% | observed activity in % destruction ([11]; 20 DAT): 0%
